# Experiments:
# Type in all cases: in vitro ADME
# [1] = system: CYP2C19; assay: Chemical inhibition of CRV431 loss in human liver microsomes: CYP2C19; conditions: pH 7.4, probe CRV431 (1 μM; loss of parent), metabolism-dependent inhibitor (also inhibits CYP3A4/5), 30 min pre-incubation
# Method: (§1) This experiment was carried out manually to verify the role of individual CYP enzymes in the metabolism of CRV431. […] Incubations were conducted at 37 ± 1 °C in 0.2 mL incubation mixtures (final volume) containing potassium phosphate buffer (50 mM, pH 7.4), MgCl2 (3 mM) and EDTA (1 mM, pH 7.4), with an NADPH-generating system as cofactor. The NADPH-generating system consisted of NADP (1 mM, pH 7.4), glucose-6-phosphate (5 mM, pH 7.4), and glucose-6-phosphate dehydrogenase (1 Unit/mL). CRV431 was added to the incubation mixtures in DMSO (0.1% v/v). For incubations with direct-acting chemical inhibitors, reactions were initiated by the addition of cofactor, and stopped by the addition of an equal volume of acetonitrile stop reagent. For incubations with metabolism-dependent chemical inhibitors, 30 min pre-incubations of human liver microsomes and the inhibitor were initiated by the addition of the cofactor. CRV431 was then added to the mixture to be incubated for 15 min. Reactions were stopped by the addition of an equal volume of acetonitrile stop reagent. Samples were analyzed by LC-MS/MS to quantify the amount of unchanged CRV431. Control samples with no CYP inhibitor present were conducted in the presence of the solvent used to dissolve the CYP inhibitor (“solvent control”).
# (§2) Samples were analyzed by LC-MS/MS on a SCIEX 4000 QTrap mass spectrometer (Sciex, Rewood City, CA, USA). […]
# [2] = biological target: T1, CYP2C9 (Homo sapiens, UniProt P11712); assay: Chemical inhibition of CRV431 loss in human liver microsomes: CYP2C9; design: tissue Sekisui Xenotech, Kansas City, MO, USA; host or cells: human liver microsomes; conditions: pH 7.4, probe CRV431 (1 μM; loss of parent), metabolism-dependent inhibitor, 30 min pre-incubation
# T1 sequence (P11712 whole entry): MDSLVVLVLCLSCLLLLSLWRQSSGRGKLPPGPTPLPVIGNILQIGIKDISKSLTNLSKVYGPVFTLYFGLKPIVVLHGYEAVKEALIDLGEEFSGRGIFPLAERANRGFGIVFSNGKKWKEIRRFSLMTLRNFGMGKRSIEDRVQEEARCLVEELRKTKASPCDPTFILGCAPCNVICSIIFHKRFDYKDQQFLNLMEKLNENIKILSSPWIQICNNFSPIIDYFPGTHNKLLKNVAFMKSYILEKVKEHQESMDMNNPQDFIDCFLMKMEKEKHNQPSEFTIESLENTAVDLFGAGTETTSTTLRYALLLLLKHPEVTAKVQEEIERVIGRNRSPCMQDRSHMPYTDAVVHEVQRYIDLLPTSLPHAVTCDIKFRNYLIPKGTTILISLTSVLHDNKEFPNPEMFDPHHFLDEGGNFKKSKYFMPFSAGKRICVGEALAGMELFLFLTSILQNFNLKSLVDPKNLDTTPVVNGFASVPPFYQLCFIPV
# Method: as §1, §2
# [3] = Recombinant CYP panel: incubation with control bactosomes; conditions: CRV431 1 μM, 15 min
# Method: (§3) This experiment was carried out to determine the cytochrome P450 (CYP) enzymes capable of metabolizing CRV431. […] Reactions were initiated by the addition of cofactor, and were terminated at zero and 15 min by the addition of 175 μL ice-cold methanol.
# (§4) The electrospray voltage was set at 4500 volts.
# [4] = biological target: T2, recombinant human CYP2D6 (Homo sapiens, UniProt P10635); assay: Metabolism by recombinant human CYP enzymes: CYP2D6; conditions: CRV431 1 μM; 50 pmol CYP/mL; 15 min
# T2 construct: purchased Sekisui Xenotech, Kansas City, MO, USA
# T2 sequence (P10635 whole entry): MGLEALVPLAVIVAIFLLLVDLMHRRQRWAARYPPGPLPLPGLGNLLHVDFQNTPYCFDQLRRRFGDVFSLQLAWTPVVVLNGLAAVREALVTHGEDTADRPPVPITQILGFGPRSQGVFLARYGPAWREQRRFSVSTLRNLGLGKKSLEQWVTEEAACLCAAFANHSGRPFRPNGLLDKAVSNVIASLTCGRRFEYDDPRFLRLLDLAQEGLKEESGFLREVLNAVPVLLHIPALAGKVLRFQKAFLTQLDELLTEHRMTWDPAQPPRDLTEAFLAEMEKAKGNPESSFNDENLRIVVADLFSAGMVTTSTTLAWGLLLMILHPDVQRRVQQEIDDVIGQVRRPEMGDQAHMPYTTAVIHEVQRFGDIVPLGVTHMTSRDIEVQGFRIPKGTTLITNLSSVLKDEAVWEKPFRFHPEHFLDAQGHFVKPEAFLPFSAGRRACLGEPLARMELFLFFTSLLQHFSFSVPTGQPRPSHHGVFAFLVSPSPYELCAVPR
# Method: as §3, §4
# [5] = Metabolic stability of CRV431 in human liver microsomes
# Method: Incubations of CRV431 (1 and 10 μM) with pooled human liver microsomes (1 mg protein/mL) were conducted for 30 min. […] CRV431 was added to incubations in DMSO (0.1% v/v). Additional incubations of CRV431 (1 and 10 μM) with human liver microsomes (1 mg protein/mL) were carried out at 0, 15, 30, 60, and 120 min. Reactions were initiated by the addition of the NADPH-generating system, and were stopped by the addition of 175 μL of acetonitrile. The samples were centrifuged (920× g for 10 min at 10 °C), and the supernatant fractions were analyzed by LC-MS/MS (Sciex, Redwood City, CA, USA) to quantify the amount of unchanged CRV431 based on a calibration curve (ranging from 0.01 to 15 μM). Zero-time, zero-cofactor (no NADPH), zero-substrate, and zero-protein served as blanks.
# as §4
# [6] = CRV431 metabolite profile in monkey liver microsomes (ESI-LCMS)
# Method: (§5) Human and rat liver microsomes were obtained from Xenotech (Kansas City, MO, USA) and stored at −80 °C. Monkey liver microsomes were obtained from Thermo Fisher Scientific (Waltham, MA, USA) and stored at −80 °C. Preliminary microsomal biotransformation experiments were run with 0.1, 1, and 10 μg/mL CRV431. CRV431 biotransformation was minimal at 0.1 μg/mL, while both 1 and 10 μg/mL CRV431 gave sufficient metabolite quantity and identical metabolite profiles. Additionally, preliminary experiments were conducted with human liver microsome (HLM) levels ranging for 0.125 to 1 mg. Subsequent microsomal biotransformation experiments were conducted using 0.5 mg of microsome per assay.
# (§6) Thawed microsome 20 mg/mL stocks were diluted 32× into cold buffer (Phosphate pH 7.4 + MgCl2 3 mM + EDTA 1 mM) to 0.625 mg/mL, and stored on ice. For experiments with CRV431, 2 μL of […] stocks were added to cold 1-mL microsomes (500× dilution) to generate the 1 μg/mL samples. […]. Samples were mixed by vortexing, and 160 μL was transferred into tubes containing 40 μL buffer on ice. Metabolic activity was stopped by the addition of ice-cold methanol (200 μL), followed by vortexing for an additional 10 s; these were zero-time samples. The extraction was completed by waiting 5 min, vortexing samples again for 5 s, then spinning the samples for 10 min at 3300 rpm at 4 °C in a pre-cooled microcentrifuge. The supernatant (325 μL) was transferred to new tubes and stored at −80 °C.
# (§7) For time course experiments, metabolism was initiated by adding 40 μL of NADPH Regenerating System (5 mg/mL NADP, 6.5 mg/mL G6P and 5 units/mL of G6P dehydrogenase). The sample was vortexed for 2 s and placed in a 37 °C bath. For CRV431 experiments at time points 10 min, 20 min, 40 min, and 80 min, 200 μL of ice-cold methanol was added to the 200 μL microsome reactions, and extracted as described above. Samples were stored at −80 °C. For verapamil experiments at 15 min, 200 μL of ice-cold methanol was added to the 200 μL microsome reactions and extracted as described above. Samples were stored at −80 °C.
# (§8) Microsome extracts were removed from the freezer (−80 °C) and left to thaw at room temperature. Aliquots (50 μL) were removed and placed in 2 mL plastic Eppendorf microcentrifuge tubes, to which 200 μL of a 0.2 M ZnSO4 solution (0.2 M ZnSO4 in water, plus HPLC grade methanol, 1:4, v/v) was added as protein precipitating reagent. The tubes were capped and vortexed for 10 s, and then left on the benchtop for 10 min. Samples were then centrifuged at 3300 rpm for 10 min. The clear supernatant (≈150 μL) was transferred to an appropriately labeled LC-MS autosampler vial and capped.
# (§9) Samples were analyzed by electrospray ionization liquid chromatography mass spectrometry (ESI-LCMS) on an Agilent HP 1100 LC-MS. Samples were placed in an autosampler maintained at 5 °C. CRV431 microsomal extracts (20 μL) were injected onto a Zorbax SB-C18 reverse phase HPLC column (1.8 μm Rapid Resolution HT Cartridge, 4.6 × 30 mm (Agilent, Santa Clara, CA, USA) maintained at 75 °C, and the components were separated using an acetonitrile–water gradient system (Table 2). The sodium adducts of CRV431 (1326 m/z) and metabolites were analyzed by mass spectrometry (MS) using electrospray ionization (ESI) in positive ion mode. The ESI–MS was optimized with N2 gas temperature set at 350 °C and drying gas at […]. The fragmentor and capillary voltages were set at 260 and 4000 volts, respectively. The nebulizer pressure was set at 40 psig. For the initial analysis of the microsomal extracts, the ESI–MS was run in scan mode (1260–1460 m/z) to capture all ion signals present. Subsequently, the microsomal extracts were run in selected ion mode (SIM), with the ions identified in the scans.
# [7] = biological target: T3, recombinant human CYP1A2 (Homo sapiens, UniProt P05177); assay: Metabolism by recombinant human CYP enzymes: CYP1A2; conditions: CRV431 1 μM; 50 pmol CYP/mL; 15 min
# T3 construct: purchased Sekisui Xenotech, Kansas City, MO, USA
# T3 sequence (P05177 1-516): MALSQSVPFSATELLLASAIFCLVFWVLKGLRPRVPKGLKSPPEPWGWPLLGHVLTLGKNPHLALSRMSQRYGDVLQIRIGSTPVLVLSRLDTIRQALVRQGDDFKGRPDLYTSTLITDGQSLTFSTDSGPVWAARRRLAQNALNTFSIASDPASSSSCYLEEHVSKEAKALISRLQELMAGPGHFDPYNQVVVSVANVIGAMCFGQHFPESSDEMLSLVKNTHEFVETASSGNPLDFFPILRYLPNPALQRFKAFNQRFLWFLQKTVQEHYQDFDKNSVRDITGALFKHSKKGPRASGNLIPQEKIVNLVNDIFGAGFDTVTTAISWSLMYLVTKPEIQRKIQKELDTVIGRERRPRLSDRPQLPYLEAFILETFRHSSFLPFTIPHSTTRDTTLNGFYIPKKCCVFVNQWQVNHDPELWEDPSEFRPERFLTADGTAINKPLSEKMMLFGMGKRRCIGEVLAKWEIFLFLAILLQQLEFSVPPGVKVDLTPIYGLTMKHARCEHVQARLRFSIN
# Method: as §3, §4
# [8] = system: other recombinant human CYP enzymes; assay: Metabolism by the other recombinant human CYP enzymes evaluated; conditions: CRV431 1 and 10 μM; the CYP enzymes of the panel not given; 15 min
# Method: as §3, §4
# [9] = biological target: T4, recombinant human CYP2C19 (Homo sapiens, UniProt P33261); assay: Metabolism by recombinant human CYP enzymes: CYP2C19; conditions: CRV431 1 μM; 50 pmol CYP/mL; 15 min
# T4 construct: purchased Sekisui Xenotech, Kansas City, MO, USA
# T4 sequence (P33261 whole entry): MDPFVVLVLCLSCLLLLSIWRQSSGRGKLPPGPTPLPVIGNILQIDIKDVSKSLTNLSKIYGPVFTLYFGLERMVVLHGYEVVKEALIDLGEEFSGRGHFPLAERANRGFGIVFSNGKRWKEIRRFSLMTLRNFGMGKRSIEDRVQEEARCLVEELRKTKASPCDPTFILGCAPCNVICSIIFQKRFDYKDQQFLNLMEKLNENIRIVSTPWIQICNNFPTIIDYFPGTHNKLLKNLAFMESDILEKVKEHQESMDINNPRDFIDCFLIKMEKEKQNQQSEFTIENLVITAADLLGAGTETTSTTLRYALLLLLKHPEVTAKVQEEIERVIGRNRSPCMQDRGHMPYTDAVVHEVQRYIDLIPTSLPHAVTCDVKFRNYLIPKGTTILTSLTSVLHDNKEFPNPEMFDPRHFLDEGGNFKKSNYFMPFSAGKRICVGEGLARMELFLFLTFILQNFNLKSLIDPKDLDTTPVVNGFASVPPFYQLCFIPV
# Method: as §3, §4
# [10] = biological target: T5, recombinant human CYP3A4 (Homo sapiens, UniProt P08684); assay: Metabolism by recombinant human CYP enzymes: CYP3A4; conditions: 50 pmol CYP/mL, 15 min
# T5 construct: purchased Sekisui Xenotech, Kansas City, MO, USA
# T5 sequence (P08684 whole entry): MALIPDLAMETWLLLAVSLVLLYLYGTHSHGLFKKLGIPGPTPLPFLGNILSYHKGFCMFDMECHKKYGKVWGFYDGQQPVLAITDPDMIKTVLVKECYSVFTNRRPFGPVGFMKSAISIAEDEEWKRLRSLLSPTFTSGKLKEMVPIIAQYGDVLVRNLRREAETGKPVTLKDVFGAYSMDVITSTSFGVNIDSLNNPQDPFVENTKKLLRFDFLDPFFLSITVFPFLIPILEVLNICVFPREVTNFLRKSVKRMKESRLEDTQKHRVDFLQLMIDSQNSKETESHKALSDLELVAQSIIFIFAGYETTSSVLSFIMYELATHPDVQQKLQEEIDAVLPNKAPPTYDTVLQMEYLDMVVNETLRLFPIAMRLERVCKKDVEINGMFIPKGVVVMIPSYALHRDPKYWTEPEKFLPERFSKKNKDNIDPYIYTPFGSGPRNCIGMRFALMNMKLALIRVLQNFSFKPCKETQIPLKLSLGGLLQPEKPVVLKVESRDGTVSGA
# Method: as §3, §4
# [11] = CRV431 metabolite profile in rat liver microsomes (ESI-LCMS); conditions: Sprague-Dawley, pH 7.4
# Method: as §5, §6, §7, §8, §9
# [12] = CRV431 metabolite profile in human liver microsomes (ESI-LCMS); conditions: pH 7.4; for Amount of CRV431 remaining: microsomes, 1 μg/mL
# Method: as §5, §6, §7, §8, §9
# [13] = biological target: T1, CYP2C9; assay: Metabolism by recombinant human CYP enzymes: CYP2C9; design: purchased Sekisui Xenotech, Kansas City, MO, USA; conditions: 50 pmol CYP/mL, 15 min
# Method: as §3, §4
compound,measurement,setting,value
COc1ccc2nc([S@@+]([O-])Cc3ncc(C)c(OC)c3C)[nH]c2c1 [esomeprazole],inhibition at 15 min,[1],37%
O=C(O)COc1ccc(C(=O)c2cccs2)c(Cl)c1Cl [tienilic acid],inhibition at 15 min,[2],7%
CCC1NC(=O)C([C@H](O)[C@H](C)CCCCCCNC(C)=O)N(C)C(=O)C(C(C)C)N(C)C(=O)[C@H](CC(C)C)N(C)C(=O)[C@H](CC(C)C)N(C)C(=O)C(C)NC(=O)[C@H](C)NC(=O)C(CC(C)C)N(C)C(=O)[C@H](C(C)C)NC(=O)[C@H](CC(C)C)N(C)C(=O)C(C)N(C)C1=O (stereo in doubt) [CRV431],Loss of CRV431,[3],24%
same,Disappearance of CRV431,[4],32%
same,Biotransformation of CRV431,"[5]; 1 and 10 μM, 1 mg protein/mL, after 60 min incubation, with NADPH-generating system",nearly complete
same,Biotransformation of CRV431,"[5]; absence of microsomal proteins and the NADPH-generating system, same time period",no biotransformation
same,"Rate of CRV431 metabolism in monkey liver microsomes, greater than in human microsomes",[6]; monkey relative to human liver microsomes,at least five-fold
same,% of Total Drug-Related Mass Versus Time (minutes) 0 min,"[6]; monkey, 0 min, 1 ug/mL, pH 7.4",96.3%
same,% of Total Drug-Related Mass Versus Time (minutes) 2.5 min,"[6]; monkey, 2.5 min, 1 ug/mL, pH 7.4",59.4%
same,% of Total Drug-Related Mass Versus Time (minutes) 5 min,"[6]; monkey, 5 min, 1 ug/mL, pH 7.4",21.5%
same,% of Total Drug-Related Mass Versus Time (minutes) 10 min,"[6]; monkey, 10 min, 1 ug/mL, pH 7.4",12.3%
same,% of Total Drug-Related Mass Versus Time (minutes) 20 min,"[6]; monkey, 20 min, 1 ug/mL, pH 7.4",4.3%
same,% of Total Drug-Related Mass Versus Time (minutes) 40 min,"[6]; monkey, 40 min, 1 ug/mL, pH 7.4",6.6%
same,% of Total Drug-Related Mass Versus Time (minutes) 80 min,"[6]; monkey, 80 min, 1 ug/mL, pH 7.4",6.7%
same,Amount of CRV431 remaining,"[6]; monkey, microsomes, 10 min, 1 μg/mL, pH 7.4",13.2%
same,Disappearance of CRV431,[7],19%
same,Substrate loss,[8],less than 15%
same,Disappearance of CRV431,[9],17%
same,Disappearance of CRV431,[10]; CRV431 1 μM,64%
same,Loss of CRV431,[10]; CRV431 10 μM,41%
same,% of Total Drug-Related Mass Versus Time (minutes) 0 min,"[11]; 0 min, 1 ug/mL",96.2%
same,% of Total Drug-Related Mass Versus Time (minutes) 10 min,"[11]; 10 min, 1 ug/mL",95.4%
same,% of Total Drug-Related Mass Versus Time (minutes) 20 min,"[11]; 20 min, 1 ug/mL",94.6%
same,% of Total Drug-Related Mass Versus Time (minutes) 40 min,"[11]; 40 min, 1 ug/mL",93.6%
same,% of Total Drug-Related Mass Versus Time (minutes) 80 min,"[11]; 80 min, 1 ug/mL",92.3%
same,Amount of CRV431 remaining,"[11]; microsomes, 80 min, 1 μg/mL",92.3%
same,% of Total Drug-Related Mass Versus Time (minutes) 0 min,"[12]; 0 min, 1 ug/mL",96.4%
same,% of Total Drug-Related Mass Versus Time (minutes) 10 min,"[12]; 10 min, 1 ug/mL",57.0%
same,% of Total Drug-Related Mass Versus Time (minutes) 20 min,"[12]; 20 min, 1 ug/mL",27.5%
same,% of Total Drug-Related Mass Versus Time (minutes) 40 min,"[12]; 40 min, 1 ug/mL",10.4%
same,% of Total Drug-Related Mass Versus Time (minutes) 80 min,"[12]; 80 min, 1 ug/mL",4.0%
same,Amount of CRV431 remaining,[12]; 10 min,71.8%
same,Amount of CRV431 remaining,[12]; 80 min,5.3%
same,Disappearance of CRV431,[13]; CRV431 1 μM,27%
same,Loss of CRV431,[13]; CRV431 10 μM,27%
